Test results from patent US20240293551A1, “USE OF ST-TYPE LIPID COMPOUNDS IN PREPARATION OF NUCLEIC ACID DELIVERY REAGENT AND RELATED PRODUCT” (INSTITUTE OF BASIC MEDICAL SCIENCES CHINESE ACADEMY OF …, priority 2021, published 2024).

Tested on: PGY-sRNA-26
Assay: In vivo delivery study of lipid-nucleic acid mixture (oral gavage, RT-qPCR of PGY-sRNA-26 in tissues)
Set-up: species or system mouse
Settings: C57BL/6 mice, gavage, 100 μg lipid: 10 nmol PGY-sRNA-26, 12 hours; for oral delivery of single-stranded sRNA nucleic acids into mouse intestinal tissue: intestine; for delivery efficacy over each tissue and blood tested (broad-spectrum delivery): all tissues and blood tested
Outline: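 C57BL/6 male mice (~6 weeks, 20-24 g), fasted 12 h, were gavaged with 10 nmol 3′-methylated PGY-sRNA-26 mixed with 100 μg lipid (heated 90° C. 15 min), versus saline or free sRNA (n=4 each). After 12 h, blood and tissues were Trizol-extracted; sRNA quantified by stem-loop RT-qPCR relative to U6.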

C[C@H](CCC(=O)O)[C@H]1CC[C@H]2[C@@H]3[C@H](O)C[C@@H]4C[C@H](O)CC[C@]4(C)[C@H]3CC[C@]12C [Lipid 580]
can effectively orally deliver: oral delivery of single-stranded sRNA nucleic acids into mouse blood | oral delivery of single-stranded sRNA nucleic acids into mouse brain tissue | oral delivery of single-stranded sRNA nucleic acids into mouse femur | oral delivery of single-stranded sRNA nucleic acids into mouse heart tissue | oral delivery of single-stranded sRNA nucleic acids into mouse intestinal tissue | oral delivery of single-stranded sRNA nucleic acids into mouse liver tissue | oral delivery of single-stranded sRNA nucleic acids into mouse lung tissue | oral delivery of single-stranded sRNA nucleic acids into mouse spleen tissue | oral delivery of single-stranded sRNA nucleic acids into mouse stomach tissue

C[C@H](CCC(=O)O)[C@H]1CC[C@H]2[C@@H]3CC[C@@H]4C[C@H](O)CC[C@]4(C)[C@H]3C[C@H](O)[C@]12C [Lipid 581]
can effectively orally deliver: oral delivery of single-stranded sRNA nucleic acids into mouse blood | oral delivery of single-stranded sRNA nucleic acids into mouse brain tissue | oral delivery of single-stranded sRNA nucleic acids into mouse femur | oral delivery of single-stranded sRNA nucleic acids into mouse heart tissue | oral delivery of single-stranded sRNA nucleic acids into mouse intestinal tissue | oral delivery of single-stranded sRNA nucleic acids into mouse kidney tissue | oral delivery of single-stranded sRNA nucleic acids into mouse liver tissue | oral delivery of single-stranded sRNA nucleic acids into mouse lung tissue | oral delivery of single-stranded sRNA nucleic acids into mouse spleen tissue | oral delivery of single-stranded sRNA nucleic acids into mouse stomach tissue
exhibited the best delivery efficacy: delivery efficacy over each tissue and blood tested (broad-spectrum delivery)

CC(=O)OCC(=O)[C@@]1(O)CC[C@H]2[C@@H]3CCC4=CC(=O)CC[C@]4(C)[C@H]3[C@@H](O)C[C@@]21C [Lipid 582]
exhibited the best delivery efficacy: delivery efficacy over each tissue and blood tested (broad-spectrum delivery)
can effectively orally deliver: oral delivery of single-stranded sRNA nucleic acids into mouse blood | oral delivery of single-stranded sRNA nucleic acids into mouse brain tissue | oral delivery of single-stranded sRNA nucleic acids into mouse femur | oral delivery of single-stranded sRNA nucleic acids into mouse heart tissue | oral delivery of single-stranded sRNA nucleic acids into mouse intestinal tissue | oral delivery of single-stranded sRNA nucleic acids into mouse kidney tissue | oral delivery of single-stranded sRNA nucleic acids into mouse liver tissue | oral delivery of single-stranded sRNA nucleic acids into mouse lung tissue | oral delivery of single-stranded sRNA nucleic acids into mouse spleen tissue | oral delivery of single-stranded sRNA nucleic acids into mouse stomach tissue

CC(C)CCC[C@@H](C)[C@H]1CC[C@H]2[C@@H]3CC[C@H]4C[C@@H](O)CC[C@]4(C)[C@H]3CC[C@]12C [Lipid 583, 5α-cholestan-3β-ol (3S,5S,8R,9S,10S,13R,14S,17R)-10,13-dimethyl-17-[(2R)-6-methylheptan-2-yl]-2,3,4,5,6,7,8,9,11,12,14,15,16,17-tetradecahydro-1H-cyclopenta[a]phenanthren-3-ol]
can effectively orally deliver: oral delivery of single-stranded sRNA nucleic acids into mouse blood | oral delivery of single-stranded sRNA nucleic acids into mouse brain tissue | oral delivery of single-stranded sRNA nucleic acids into mouse femur | oral delivery of single-stranded sRNA nucleic acids into mouse heart tissue | oral delivery of single-stranded sRNA nucleic acids into mouse intestinal tissue | oral delivery of single-stranded sRNA nucleic acids into mouse liver tissue | oral delivery of single-stranded sRNA nucleic acids into mouse lung tissue | oral delivery of single-stranded sRNA nucleic acids into mouse stomach tissue

CCCCCCCCCCCCCCCCCC(=O)O[C@H]1CC[C@@]2(C)C(=CC[C@H]3[C@@H]4CC[C@H]([C@H](C)CCCC(C)C)[C@@]4(C)CC[C@@H]32)C1 [Lipid 584]
can effectively orally deliver: oral delivery of single-stranded sRNA nucleic acids into mouse blood | oral delivery of single-stranded sRNA nucleic acids into mouse brain tissue | oral delivery of single-stranded sRNA nucleic acids into mouse femur | oral delivery of single-stranded sRNA nucleic acids into mouse heart tissue | oral delivery of single-stranded sRNA nucleic acids into mouse intestinal tissue | oral delivery of single-stranded sRNA nucleic acids into mouse liver tissue | oral delivery of single-stranded sRNA nucleic acids into mouse lung tissue | oral delivery of single-stranded sRNA nucleic acids into mouse spleen tissue | oral delivery of single-stranded sRNA nucleic acids into mouse stomach tissue

CC(=O)OCC(=O)[C@@]1(O)CC[C@H]2[C@@H]3CCC4=CC(=O)CC[C@]4(C)[C@H]3C(=O)C[C@@]21C [Lipid 585]
can effectively orally deliver: oral delivery of single-stranded sRNA nucleic acids into mouse blood | oral delivery of single-stranded sRNA nucleic acids into mouse brain tissue | oral delivery of single-stranded sRNA nucleic acids into mouse femur | oral delivery of single-stranded sRNA nucleic acids into mouse heart tissue | oral delivery of single-stranded sRNA nucleic acids into mouse intestinal tissue | oral delivery of single-stranded sRNA nucleic acids into mouse kidney tissue | oral delivery of single-stranded sRNA nucleic acids into mouse liver tissue | oral delivery of single-stranded sRNA nucleic acids into mouse lung tissue | oral delivery of single-stranded sRNA nucleic acids into mouse spleen tissue | oral delivery of single-stranded sRNA nucleic acids into mouse stomach tissue

C[C@H](CCC(=O)O)[C@H]1CC[C@H]2[C@@H]3C(=O)C[C@@H]4C[C@H](O)CC[C@]4(C)[C@H]3CC[C@]12C [Lipid 586]
can effectively orally deliver: oral delivery of single-stranded sRNA nucleic acids into mouse blood | oral delivery of single-stranded sRNA nucleic acids into mouse brain tissue | oral delivery of single-stranded sRNA nucleic acids into mouse femur | oral delivery of single-stranded sRNA nucleic acids into mouse heart tissue | oral delivery of single-stranded sRNA nucleic acids into mouse intestinal tissue | oral delivery of single-stranded sRNA nucleic acids into mouse kidney tissue | oral delivery of single-stranded sRNA nucleic acids into mouse liver tissue | oral delivery of single-stranded sRNA nucleic acids into mouse spleen tissue | oral delivery of single-stranded sRNA nucleic acids into mouse stomach tissue

C[C@]12CCC(=O)C=C1CC[C@@H]1[C@@H]2CC[C@]2(C)C(=O)CC[C@@H]12 [Lipid 587]
can effectively orally deliver: oral delivery of single-stranded sRNA nucleic acids into mouse blood | oral delivery of single-stranded sRNA nucleic acids into mouse brain tissue | oral delivery of single-stranded sRNA nucleic acids into mouse heart tissue | oral delivery of single-stranded sRNA nucleic acids into mouse kidney tissue | oral delivery of single-stranded sRNA nucleic acids into mouse spleen tissue | oral delivery of single-stranded sRNA nucleic acids into mouse stomach tissue

C[C@@H]1CC[C@@]2(OC1)O[C@H]1C[C@H]3[C@@H]4CC=C5C[C@@H](O)CC[C@]5(C)[C@H]4CC[C@]3(C)[C@H]1[C@@H]2C [Lipid 589]
exhibited the best delivery efficacy: delivery efficacy over each tissue and blood tested (broad-spectrum delivery)
can effectively orally deliver: oral delivery of single-stranded sRNA nucleic acids into mouse blood | oral delivery of single-stranded sRNA nucleic acids into mouse brain tissue | oral delivery of single-stranded sRNA nucleic acids into mouse femur | oral delivery of single-stranded sRNA nucleic acids into mouse heart tissue | oral delivery of single-stranded sRNA nucleic acids into mouse intestinal tissue | oral delivery of single-stranded sRNA nucleic acids into mouse kidney tissue | oral delivery of single-stranded sRNA nucleic acids into mouse liver tissue | oral delivery of single-stranded sRNA nucleic acids into mouse lung tissue | oral delivery of single-stranded sRNA nucleic acids into mouse spleen tissue | oral delivery of single-stranded sRNA nucleic acids into mouse stomach tissue

CC(=O)[C@H]1CC[C@H]2[C@@H]3CC=C4C[C@@H](O)CC[C@]4(C)[C@H]3CC[C@]12C [Lipid 590]
can effectively orally deliver: oral delivery of single-stranded sRNA nucleic acids into mouse blood | oral delivery of single-stranded sRNA nucleic acids into mouse brain tissue | oral delivery of single-stranded sRNA nucleic acids into mouse femur | oral delivery of single-stranded sRNA nucleic acids into mouse heart tissue | oral delivery of single-stranded sRNA nucleic acids into mouse intestinal tissue | oral delivery of single-stranded sRNA nucleic acids into mouse kidney tissue | oral delivery of single-stranded sRNA nucleic acids into mouse liver tissue | oral delivery of single-stranded sRNA nucleic acids into mouse lung tissue | oral delivery of single-stranded sRNA nucleic acids into mouse spleen tissue | oral delivery of single-stranded sRNA nucleic acids into mouse stomach tissue
exhibited the best delivery efficacy: delivery efficacy over each tissue and blood tested (broad-spectrum delivery)
